According to patent publication US20090012091A1, “Oximide derivatives and their therapeutical application” (KinaGen, Inc., priority 2007, published 2009):

The molecules below were run against T1, B-raf kinase (Homo sapiens, UniProt P15056) (assay: in vitro Raf Kinase Assay (33P-phosphate incorporation into GST-kdMEK)). Conditions: human recombinant Raf protein, substrate GST-kdMEK, 33P-ATP, 25° C., 90 minutes; read-out: IC50 (concentration of test compound required to inhibit 50% of the B-raf kinase activity).
T1 construct: made in house; host or cells: Sf9 insect cells (baculovirus)
T1 sequence (P15056 whole entry): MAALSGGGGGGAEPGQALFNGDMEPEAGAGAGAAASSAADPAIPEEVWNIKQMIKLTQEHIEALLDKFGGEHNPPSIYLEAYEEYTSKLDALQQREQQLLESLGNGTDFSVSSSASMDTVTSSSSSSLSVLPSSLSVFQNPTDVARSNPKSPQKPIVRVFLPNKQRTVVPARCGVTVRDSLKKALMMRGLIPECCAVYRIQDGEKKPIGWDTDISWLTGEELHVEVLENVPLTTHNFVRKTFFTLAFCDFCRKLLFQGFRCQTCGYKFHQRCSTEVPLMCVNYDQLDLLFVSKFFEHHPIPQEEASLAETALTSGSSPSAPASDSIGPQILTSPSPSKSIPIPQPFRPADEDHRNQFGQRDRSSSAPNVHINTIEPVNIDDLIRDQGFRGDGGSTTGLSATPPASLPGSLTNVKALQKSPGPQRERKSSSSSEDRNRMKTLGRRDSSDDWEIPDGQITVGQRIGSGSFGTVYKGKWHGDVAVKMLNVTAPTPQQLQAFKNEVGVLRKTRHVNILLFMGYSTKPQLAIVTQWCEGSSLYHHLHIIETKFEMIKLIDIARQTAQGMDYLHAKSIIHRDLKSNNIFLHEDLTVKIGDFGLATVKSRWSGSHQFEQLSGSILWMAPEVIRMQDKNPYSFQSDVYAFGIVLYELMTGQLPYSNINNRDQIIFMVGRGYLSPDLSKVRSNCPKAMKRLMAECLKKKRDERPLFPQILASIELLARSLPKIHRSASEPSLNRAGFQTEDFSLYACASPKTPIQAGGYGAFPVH
Format: biochemical
Method: Activity of human recombinant Raf protein was assessed in vitro by assay of the incorporation of radiolabelled phosphate to recombinant MAP kinase (MEK), a known physiologic substrate of Raf. Catalytically active human recombinant Raf protein was obtained by purification from sf9 insect cells infected with a human Raf recombinant baculovirus expression vector.
Method: Standard assay conditions of Raf catalytic activity utilized […] of GST-kdMBK, 10 µM ATP and 2 uCi ^33P-ATP, 50 mM MOPS, 0.1 mM EDTA, 0.1M sucrose, 10 mM MgCl2 plus 0.1% dimethylsulphoxide (containing compound where appropriate) in a total reaction volume of 30 ul. Reactions were incubated at 25° C. for 90 minutes and reactions terminated by addition of EDTA to a final concentration of […]. 10 ul of reaction was spotted to P30 phosphocellulose paper and air dried. Following four washes in ice cold 10% trichloroacetic acid, 0.5% phosphoric acid, papers were air dried prior to addition of liquid scintillant and measurement of radioactivity in a scintillation counter. The % inhibition of the B-raf kinase activity is calculated and plotted in order to determine the concentration of test compound required to inhibit 50% of the B-raf kinase activity (IC50).

Row | SMILES | IC50 [µM]
1 | CCN(CC)CCONC(=O)c1cc(Oc2ccc(NC(=O)Nc3ccc(Cl)c(C(F)(F)F)c3)cc2)ccn1 [Compound 8, 4-(4-(3-(4-chloro-3-(trifluoromethyl)phenyl)urei-do)phenoxy)-N-(2-(diethylamino)ethoxy)picolinamide] | < 1
2 | CONC(=O)c1cc(Oc2ccc(NC(=O)Nc3ccc(Cl)cc3)cc2)ccn1 [Compound 12, 4-(4-(3-(4-chlorophenyl)ureido)phenoxy)-N-methoxypicolinamide] | < 1
3 | O=C(Nc1ccc(Oc2ccnc(C(=O)NOC3CCCC3)c2)cc1)Nc1ccc(Cl)c(Cl)c1 [Compound 17, N-(cyclopentyloxy)-4-(4-(3-(3,4-dichloro-phenyl)ureido)phenoxy)picolinamide] | < 1
4 | O=C(Nc1ccc(Oc2cc(C(=O)NCCO)ncn2)cc1)Nc1ccc(Cl)c(C(F)(F)F)c1 [Compound 22, 6-(4-(3-(4-chloro-3-(trifluoro-methyl)phenyl)ureido)phenoxy)-N-(2-hydroxyethyl)pyrimidine-4-carboxamide] | < 1
5 | CNC(=O)c1cc(Oc2ccc(NC(=O)Nc3ccc(Cl)cc3)cc2)ncn1 [Compound 24, 6-(4-(3-(4-chlorophenyl)ureido)phenoxy)-N-methylpyrimidine-4-carboxamide] | < 1
6 | CCNC(=O)c1cc(Oc2ccc(NC(=O)c3ccc(Cl)cc3)cc2)ccn1 [Compound 20, 4-(4-(4-chloro-benzamido)phenoxy)-N-ethylpicolinamide] | < 10
7 | CNC(=O)c1cc(Oc2ccc(NC(=O)Nc3ccc(Cl)c(C(F)(F)F)c3)cc2)ncn1 [Compound 23, 6-(4-(3-(4-chloro-3-(trifluoro-methyl)phenyl)ureido)phenoxy)-N-methylpyrimidine-4-carboxamide] | < 1
8 | COc1ccc(NC(=O)Nc2ccc(Oc3ccnc(C(=O)NOC4CCC4)c3)cc2)cc1OC [Compound 19, N-cyclobutoxy-4-(4-(3-(3,4-dimethoxyphenyl)urei-do)phenoxy)picolinamide] | < 1
9 | CCCONC(=O)c1cc(Oc2ccc(NC(=O)Nc3ccc(Cl)c(C(F)(F)F)c3)cc2)ccn1 [Compound 6, 4-(4-(3-(4-chloro-3-(trifluoromethyl)phenyl)urei-do)phenoxy)-N-propoxypicolinamide] | < 1
10 | CONC(=O)c1cc(Oc2ccc(NC(=O)Nc3ccccc3)cc2)ccn1 [Compound 15, N-methoxy-4-(4-(3-phenylureido)phenoxy)picolinamide] | < 1
11 | CONC(=O)c1cc(Oc2ccc(NC(=O)Nc3ccc(OC)c(OC)c3)cc2)ccn1 [Compound 16, 4-(4-(3-(3,4-dimethoxyphenyl)ureido)phenoxy)-N-methoxypicolinamide] | < 1
12 | CONC(=O)c1cc(Oc2ccc(NC(=O)Nc3ccc(Cl)c(Cl)c3)cc2)ccn1 [Compound 14, 4-(4-(3-(3,4-dichlorophenyl)ureido)phenoxy)-N-methoxypicolinamide] | < 1
13 | O=C(Nc1ccccc1)Nc1ccc(Oc2ccnc(C(=O)NOC3CCCCC3)c2)cc1 [Compound 18, N-(cyclohexyloxy)-4-(4-(3-phenylureido)phenoxy)picolinamide] | < 1

More lines, now with the values ahead:

Row | IC50 [µM] | SMILES
14 | < 1 | CN(C)CCONC(=O)c1cc(Oc2ccc(NC(=O)Nc3ccc(Cl)c(C(F)(F)F)c3)cc2)ccn1 [Compound 9, 4-(4-(3-(4-chloro-3-(trifluoromethyl)phenyl)urei-do)phenoxy)-N-(2-(dimethylamino)ethoxy)picolinamide]
15 | < 1 | CONC(=O)c1cc(Oc2ccc(NC(=O)Nc3cccc(C(F)(F)F)c3)cc2)ccn1 [Compound 13, N-methoxy-4-(4-(3-(3-(trifluoromethyl)phenyl)urei-do)phenoxy)picolinamide]
16 | < 10 | O=C(Nc1ccc(Oc2ccnc(C(=O)O)c2)cc1)Nc1ccc(Cl)c(C(F)(F)F)c1 [Compound 4, 4-(4-(3-(4-chloro-3-(trifluoromethyl)phenyl)ureido)phenoxy)picolinic acid]
17 | < 1 | CONC(=O)c1cc(Oc2ccc(NC(=O)Nc3ccc(Cl)c(C(F)(F)F)c3)cc2)ncn1 [Compound 26, 6-(4-(3-(4-chloro-3-(trifluoro-methyl)phenyl)ureido)phenoxy)-N-methoxypyrimidine-4-carboxamide]
18 | < 1 | CCONC(=O)c1cc(Oc2ccc(NC(=O)Nc3ccc(Cl)c(C(F)(F)F)c3)cc2)ncn1 [Compound 25, 6-(4-(3-(4-chloro-3-(trifluoro-methyl)phenyl)ureido)phenoxy)-N-ethoxypyrimidine-4-carboxamide]
19 | < 10 | CC(C)(C)OC(=O)c1cc(Oc2ccc(NC(=O)Nc3ccc(Cl)c(C(F)(F)F)c3)cc2)ccn1 [Compound 3, tert-butyl 4-(4-(3-(4-chloro-3-(trifluoromethyl)phenyl)ureido)phenoxy)picolinate]
20 | < 1 | CONC(=O)c1cc(Oc2ccc(NC(=O)Nc3ccc(Cl)c(C(F)(F)F)c3)cc2)ccn1 [Compound 5, 4-(4-(3-(4-chloro-3-(trifluoromethyl)phenyl)ureido)phenoxy)-N-methoxypicolinamide]
21 | < 1 | CNC(=O)c1ncnc(Oc2ccc(NC(=O)Nc3ccc(Cl)c(C(F)(F)F)c3)cc2)n1 [Compound 28, 4-(4-(3-(4-chloro-3-(trifluoro-methyl)phenyl)ureido)phenoxy)-N-methyl-1,3,5-triazine-2-carboxamide]
22 | < 1 | CN(C)CCNC(=O)c1cc(Oc2ccc(NC(=O)Nc3ccc(Cl)c(C(F)(F)F)c3)cc2)ncn1 [Compound 27, 6-(4-(3-(4-chloro-3-(trifluoro-methyl)phenyl)ureido)phenoxy)-N-(2-(dimethylamino)ethyl)pyrimidine-4-carboxamide]
23 | < 1 | CCN(CC)C(=O)CONC(=O)c1cc(Oc2ccc(NC(=O)Nc3ccc(Cl)c(C(F)(F)F)c3)cc2)ccn1 [Compound 10, 4-(4-(3-(4-chloro-3-(trifluoromethyl)phenyl)urei-do)phenoxy)-N-(2-(diethylamino)-2-oxoethoxy)picolinamide]
24 | < 1 | CN(C)C(=O)CONC(=O)c1cc(Oc2ccc(NC(=O)Nc3ccc(Cl)c(C(F)(F)F)c3)cc2)ccn1 [Compound 11, 4-(4-(3-(4-chloro-3-(trifluoromethyl)phenyl)urei-do)phenoxy)-N-(2-(dimethylamino)-2-oxoethoxy)picolinamide]
25 | < 1 | CCONC(=O)c1cc(Oc2ccc(NC(=O)Nc3ccc(Cl)c(C(F)(F)F)c3)cc2)ccn1 [Compound 7, 4-(4-(3-(4-chloro-3-(trifluoromethyl)phenyl)urei-do)phenoxy)-N-ethoxypicolinamide]
26 | < 10 | CCNC(=O)c1cc(Oc2ccc(NC(=O)c3ccc(Cl)c(Cl)c3)cc2)ccn1 [Compound 21, 4-(4-(3,4-dichlorobenzamido)phenoxy)-N-ethylpicolinamide]
